The structures appear in SMILES notation. Where a name gives a salt, the structure may show the parent alone.

This is an account of results in patent publication US20210284647A1, “N-(3-(IMIDAZO[1,2-B]PYRIDAZIN-3-YLETHYNYL)-4-METHYLPHENYL)-5-PHENYL-4,5-DIHYDRO-1H-PYRAZOLE-1-CARBOXAMIDE DERIVATIVE, AND PHARMACEUTICAL COMPOSITION CONTAINING SAME AS ACTIVE INGREDIENT FOR TREATING KINASE-RELATED DISEASES” (VORONOIBIO INC., priority 2018, published 2021).

In one experiment the target is T1, human GST-RIPK1 (Homo sapiens, UniProt Q13546).
T1 construct: GST; purchased signalchem
T1 sequence (Q13546 1-375 limits assumed): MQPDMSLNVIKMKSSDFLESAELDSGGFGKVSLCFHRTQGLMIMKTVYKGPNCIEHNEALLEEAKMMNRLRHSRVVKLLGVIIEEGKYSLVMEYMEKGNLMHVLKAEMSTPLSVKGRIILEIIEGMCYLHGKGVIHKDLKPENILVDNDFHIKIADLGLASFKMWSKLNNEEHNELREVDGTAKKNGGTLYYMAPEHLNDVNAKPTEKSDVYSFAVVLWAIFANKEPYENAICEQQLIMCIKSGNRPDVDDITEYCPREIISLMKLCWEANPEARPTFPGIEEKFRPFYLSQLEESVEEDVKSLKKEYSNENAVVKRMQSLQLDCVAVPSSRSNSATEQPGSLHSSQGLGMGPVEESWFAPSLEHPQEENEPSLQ
As to the kind of experiment: RIPK1 inhibitory activity (ADP-Glo kinase assay). To be noted: human GST-RIPK1 10 ng, ATP 50 uM, 25° C. for 4 hours, read-out: Enzyme IC50. The class given is biochemical. As to the method:
The following experiment was performed to evaluate the inhibitory activity of the example compounds according to the present invention against RIPK1 (receptor-interacting serine/threonine protein kinase 1).
The example compound was reacted with the purified human GST-RIPK1 (1375, signalchem) enzyme to evaluate the enzyme inhibitory activity in the following manner. The composition of the reaction buffer used herein was as follows: 40 mM Tris-Hcl pH 7.4, 20 mM MgCl2, 0.5 mg/ml, BSA and 0.5 uM DTT. All the test materials were reacted in the reaction buffer. After reacting human GST-RIPK1 (1375, 10 ng), purified ATP (50 uM) and a specific substrate solution at 25° C. for 4 hours, the enzyme activity was confirmed using an in vitro ADP-Glo™ kinase assay (promega). Luminoscence was measured by reacting the enzyme activity reaction solution, ADP-Glo reaction solution, and enzyme activity detection solution at the ratio of 2:2:1. The degree of enzyme activity inhibition according to the treatment concentration of each compound was calculated based on the fluorescence of the enzyme activity of the solvent control not treated with the compound. At this time, the concentration of each compound inhibiting 50% of the enzyme activity was determined as IC50 (nM). IC50 of each compound was determined with three data sets and calculated using Prism (version 7.01, GraphPad) software.
A general note: ADP-Glo first removes unused ATP, then detects ADP through luciferase.

Experiment [1] relates to human Jurkat T cells deficient in FADD. Briefly: Cell protection effect under apoptosis-inducing condition (TNF-α). The class given is cell-based. Conditions: 40 ng of TNF-α, 50 hours, CellTiter-Glo, read-out: I2.I Cell EC50. As to the method:
The cell protection effect of the compounds according to the present invention under the condition of inducing apoptosis by TNF-α was confirmed by […]. An apoptosis inducing factor such as TNF-α was treated to induce apoptosis of human Jurkat T cells deficient in FADD, to which the example compound was treated, and the cell protection effect was confirmed through the following analysis. Jurkat T cells deficient in FADD were cultured using RPMI medium (Hyclone) containing 10% FBS. When performing the test, the cells were seeded in a 96-well plate containing a medium suitable for the cell line at the density of 10,000 cells/well, and cultured in a 37° C. 5% CO2 incubator for 24 hours. Then, each well was treated with 40 ng of TNF-α, and the compounds prepared in the above examples were each treated with a 3-fold concentration gradient with 1 μM as the highest concentration. As the solvent control, dimethyl sulfoxide (DMSO) was treated at the concentration of 0.05% (v/v), which was the same concentration as that used for the compound treatment. Then, the cells were cultured for 50 hours. To confirm the degree of viability of the cells, a mixture provided in CellTiter-Gloe Luminescent Cell Viability Assay Kit (Promega) was added to the culture medium of the cells, followed by further culture at 37° C. for 30 minutes. Then, luminescence fluorescence was measured. The degree of inhibition of apoptosis induction according to the treatment concentration of each compound was calculated based on the fluorescence of the solvent control cells not treated with the compound. At this time, the concentration of each compound inhibiting 50% was determined as EC50 (μM). EC50 of each compound was calculated using Prism (version 7.01, GraphPad) software.
On the technique in general: Cellular ATP, detected with luciferase, serves as a proxy for viable cell number.

Consider `O=C(Nc1cccc(C#Cc2cnc3cccnn23)c1)N1N=CCC1c1ccc(C(F)(F)F)cc1` (centres unmarked) [Example 26, N-(3-(imidazo[1,2-b]pyridazin-3-ylethynyl)phenyl)-5-(4-(trifluoromethyl)phenyl)-4,5-dihydro-1H-pyrazole-1-carboxamide 2,2,2-trifluoroacetate], for which, at human GST-RIPK1, the IC50 (as a rule, the concentration that inhibits the measured activity by half) is 0.0069 µM. Further, the EC50 (in general, the concentration needed to bring the measured effect to its halfway point) in experiment [1] came out at 0.201 µM.

With `COc1ccc(C2CC=NN2C(=O)Nc2cccc(C#Cc3cnc4cccnn34)c2)cc1` (centres unmarked) [Example 27, N-(3-(imidazo[1,2-b]pyridazin-3-ylethynyl)phenyl)-5-(4-methoxyphenyl)-4,5-dihydro-1H-pyrazole-1-carboxamide 2,2,2-trifluoroacetate], the IC50 at human GST-RIPK1 came to 0.00235 µM. Further, the EC50 in experiment [1] turned out to be 0.0554 µM.

With `O=C(Nc1cccc(C#Cc2cnn3cccnc23)c1)N1N=CCC1c1ccccc1` (centres unmarked) [Example 56, 5-phenyl-N-(3-(pyrazolo[1,5-a]pyrimidin-3-ylethynyl)phenyl)-4,5-dihydro-1H--pyrazole-1-carboxamide], the IC50 at human GST-RIPK1 turned out to be 0.0305 µM. In addition, the EC50 in experiment [1] stood at 0.0003 µM.

For the compound `O=C(Nc1cccc(C#Cc2cnc3cccnn23)c1)N1N=CCC1c1ccccn1` (centres unmarked) [Example 37, N-(3-(imidazo[1,2-b]pyridazin-3-ylethynyl)phenyl)-5-(pyridin-2-yl)-4,5-dihydro-1H-pyrazole-1-carboxamide 2,2,2-trifluoroacetate], the IC50 on human GST-RIPK1 was determined as 0.00122 µM. Moreover, the EC50 in experiment [1] was determined as 0.00184 µM.

`O=C(Nc1cccc(C#Cc2cnc3cccnn23)c1)N1N=CCC1c1ccc(F)cc1` (centres unmarked) [Example 31, 5-(4-fluorophenyl)-N-(3-(imidazo[1,2-b]pyridazin-3-ylethynyl)phenyl)-4,5-dihydro-1H-pyrazole-1-carboxamide 2,2,2-trifluoroacetate]: at human GST-RIPK1, the IC50 was found to be 0.0102 µM. Also, the half-maximal effective concentration (EC50) in experiment [1] was determined as 0.00143 µM.

`O=C(Nc1cc(C#Cc2cnc3cccnn23)ccc1F)N1N=CCC1c1ccccc1` (centres unmarked) [Example 47, N-(2-fluoro-5-(imidazo[1,2-b]pyridazin-3-ylethynyl)phenyl)-5-phenyl-4,5-dihydro-1H-pyrazole-1-carboxamide 2,2,2-trifluoroacetate]: at human GST-RIPK1, the IC50 is 0.0501 µM. Further, the EC50 in experiment [1] was above 1 µM.

As to `O=C(Nc1cccc(C#Cc2cnc3ccccn23)c1)N1N=CCC1c1ccccc1` (centres unmarked) [Example 55, N-(3-(imidazo[1,2-a]pyridin-3-ylethynyl)phenyl)-5-phenyl-4,5-dihydro-1H-pyrazole-1-carboxamide], the IC50 at human GST-RIPK1 was 0.0134 µM. In addition, the EC50 in experiment [1] was found to be 0.0016 µM.

`Cc1ccc(NC(=O)N2N=CC[C@@H]2c2cc(F)cc(F)c2)cc1C#Cc1cnc2cccnn12` [Example 6, (R)-5-(3,5-difluorophenyl)-N-(3-(imidazo[1,2-b]pyridazin-3-ylethynyl)-4-methylphenyl)-4,5-dihydro-1H-pyrazole-1-carboxamide 2,2,2-trifluoroacetate]: the IC50 at human GST-RIPK1 is above 1 µM. The EC50 in experiment [1] came out at 0.249 µM.

For the compound `O=C(Nc1cccn2c(C#Cc3cccc(NC(=O)N4N=CCC4c4ccccc4)c3)cnc12)C1CC1` (centres unmarked) [Example 62, N-(3-((8-(cyclopropanecarboxamido)imidazo[1,2-a]pyridin-3-yl)ethynyl)phenyl)-5-phenyl-4,5-dihydro-1H-pyrazole-1-carboxamide 2,2,2-trifluoroacetate], the IC50 at human GST-RIPK1 worked out at 0.179 µM. Moreover, the EC50 in experiment [1] came to 0.0017 µM.

As for `Cc1cc(Nc2cccn3c(C#Cc4cccc(NC(=O)N5N=CCC5c5ccccc5)c4)cnc23)n[nH]1` (centres unmarked) [Example 66, N-(3-((8-((5-methyl-1H-pyrazol-3-yl)amino)imidazo[1,2-a]pyridin-3-yl)ethynyl)phenyl)-5-phenyl-4,5-dihydro-1H-pyrazole-1-carboxamide 2,2,2-trifluoroacetate], at human GST-RIPK1, the IC50 was 0.0306 µM. Also, the EC50 in experiment [1] came to 0.00022 µM.

With `O=C(Nc1cc(C#Cc2cnc3cccnn23)ccn1)N1N=CCC1c1ccccc1` (centres unmarked) [Example 52, N-(4-(imidazo[1,2-b]pyridazin-3-ylethynyl)pyridin-2-yl)-5-phenyl-4,5-dihydro-1H-pyrazole-1-carboxamide 2,2,2-trifluoroacetate], the IC50 on human GST-RIPK1 is 0.775 µM. Moreover, the EC50 in experiment [1] was above 1 µM.

`Cc1ccc(NC(=O)N2N=CC[C@H]2c2cccc(F)c2)cc1C#Cc1cnc2cccnn12` [Example 9, (S)-5-(3-fluorophenyl)-N-(3-(imidazo[1,2-b]pyridazin-3-ylethynyl)-4-methylphenyl)-4,5-dihydro-1H-pyrazole-1-carboxamide 2,2,2-trifluoroacetate]: on human GST-RIPK1, the IC50 was 0.0195 µM. In addition, the EC50 in experiment [1] worked out at 0.00041 µM.

With `O=C(Nc1cccc(C#Cc2cnc3cccnn23)c1)N1N=CCC1c1ccc2c(c1)OCO2` (centres unmarked) [Example 39, 5-(benzo[d][1,3]dioxol-5-yl)-N-(3-(imidazo[1,2-b]pyridazin-3-ylethynyl)phenyl)-4,5-dihydro-1H-pyrazole-1-carboxamide 2,2,2-trifluoroacetate], at human GST-RIPK1, the IC50 came to 0.0049 µM. In addition, the EC50 in experiment [1] was 0.0028 µM.

With `Cc1ccc(NC(=O)N2N=CC[C@H]2c2ccc(F)cc2)cc1C#Cc1cnc2cccnn12` [Example 12, (S)-5-(4-fluorophenyl)-N-(3-(imidazo[1,2-b]pyridazin-3-ylethynyl)-4-methylphenyl)-4,5-dihydro-1H-pyrazole-1-carboxamide 2,2,2-trifluoroacetate], at human GST-RIPK1, the half-maximal inhibitory concentration (IC50) was 0.0191 µM. In experiment [1], the EC50 came to 0.0002 µM.

As for `O=C(Nc1cccc(C#Cc2cnc3cccnn23)c1)N1N=CC[C@@H]1c1ccccc1` [Example 21, (R)—N-(3-(imidazo[1,2-b]pyridazin-3-ylethynyl)phenyl)-5-phenyl-4,5-dihydro-1H-pyrazole-1-carboxamide hydrochloride], on human GST-RIPK1, the IC50 was above 1 µM. In addition, in experiment [1], the EC50 was 0.588 µM.

With `O=C(Nc1cccc(C#Cc2cnc3cccnn23)c1)N1N=CCC1c1cccc(F)c1` (centres unmarked) [Example 28, 5-(3-fluorophenyl)-N-(3-(imidazo[1,2-b]pyridazin-3-ylethynyl)phenyl)-4,5-dihydro-1H-pyrazole-1-carboxamide 2,2,2-trifluoroacetate], the IC50 at human GST-RIPK1 is 0.0101 µM. Further, in experiment [1], the EC50 worked out at 0.0008 µM.

With `Cc1ccc(NC(=O)N2N=CCC2c2cccc(F)c2)cc1C#Cc1cnc2cccnn12` (centres unmarked) [Example 8, 5-(3-fluorophenyl)-N-(3-(imidazo[1,2-b]pyridazin-3-ylethynyl)-4-methylphenyl)-4,5-dihydro-1H-pyrazole-1-carboxamide 2,2,2-trifluoroacetate], the IC50 at human GST-RIPK1 was 0.0836 µM. In experiment [1], the EC50 amounted to 0.00059 µM.

With `O=C(Nc1cccc(C#Cc2cnc3cccnn23)c1)N1N=CCC1c1cccc(Cl)c1` (centres unmarked) [Example 34, 5-(3-chlorophenyl)-N-(3-(imidazo[1,2-b]pyridazin-3-ylethynyl)phenyl)-4,5-dihydro-1H-pyrazole-1-carboxamide 2,2,2-trifluoroacetate], the IC50 on human GST-RIPK1 is 0.0189 µM. The 50% effective concentration (EC50) in experiment [1] was 0.043 µM.

Take `Cc1ccc(NC(=O)N2N=CCC2c2ccncc2)cc1C#Cc1cnc2cccnn12` (centres unmarked) [Example 18, N-(3-(imidazo[1,2-b]pyridazin-3-ylethynyl)-4-methylphenyl)-5-(pyridin-4-yl)-4,5-dihydro-1H-pyrazole-1-carboxamide 2,2,2-trifluoroacetate]: the IC50 on human GST-RIPK1 is 0.0024 µM. The EC50 in experiment [1] was found to be 0.0003 µM.
